Reference: the NIST ThermoML archive (doi:10.1016/j.jct.2018.03.009)
Numbers after ± are expanded uncertainties.

Settings: 101.33 kPa, Liquid, Pycnometric method

SMILES	mass density (273.15 K)	mass density (283.15 K)
COCC(C)OC(C)=O (configuration not stated) [1-methoxy-2-propyl acetate]	989.2 ± 4.4 kg/m3	978.2 ± 4.3 kg/m3
CCOCCOCCOC(C)=O [2-(2-ethoxyethoxy)ethyl acetate]	1030 ± 5.9 kg/m3	1020 ± 5.8 kg/m3
CCCCOCCOC(C)=O [2-butoxyethyl acetate]	960.4 ± 5.5 kg/m3	950.4 ± 5.4 kg/m3
COCCOC(C)=O [2-methoxyethyl ethanoate]	1027.8 ± 5.8 kg/m3	1016.8 ± 5.8 kg/m3
COC(C)CCOC(C)=O (configuration not stated) [3-methoxybutyl acetate]	975.3 ± 4.3 kg/m3	965.3 ± 4.3 kg/m3
CCOCCOCCOCC [diethylene glycol diethyl ether]	926.4 ± 4.1 kg/m3	916.3 ± 4 kg/m3
